Experiments:
Phaedon cochleariae = Phaedon cochleariae - spray test; assay type: in vivo; conditions: 500 g/ha, after 7 days, larvae on Chinese cabbage leaf discs
Experimental: (§1) • Solvent: 78.0 parts by weight of acetone • 1.5 parts by weight of dimethylformamide • Emulsifier: alkylaryl polyglycol ether
(§2) To produce a suitable preparation of active compound, 1 part by weight of active compound is dissolved using the stated parts by weight of solvent and made up with water containing an emulsifier concentration of 1000 ppm until the desired concentration is attained. To produce further test concentrations, the preparation is diluted with emulsifier-containing water.
After 7 days, the efficacy in % is determined. 100% means that all the beetle larvae have been killed; 0% means that no beetle larvae have been killed.

Meloidogyne incognita = Meloidogyne incognita test; assay type: in vivo; conditions: 20 ppm, after 14 days, formation of galls on lettuce roots
Experimental: • Solvent: 125.0 parts by weight of acetone To produce a suitable preparation of active compound, 1 part by weight of active compound is mixed with the stated amount of solvent and the concentrate is diluted with water to the desired concentration. Vessels are filled with sand, active compound solution, an egg/larvae suspension of the southern root-knot nematode (Meloidogyne incognita) and lettuce seeds. The lettuce seeds germinate and the plants develop. The galls develop on the roots. After 14 days, the nematicidal efficacy in % is determined by the formation of galls. 100% means that no galls were found; 0% means that the number of galls on the treated plants corresponds to the untreated control.

[1] = log P by HPLC on a reversed-phase column (C 18), EEC Directive 79/831 Annex V.A8; assay type: physicochemical; conditions: 55° C.; for LOGP_HCOOH: acidic range, pH 2.7, 0.1% aqueous formic acid/acetonitrile; for LOGP_NEUTRAL: neutral range, pH 7.8, 0.001 molar aqueous ammonium hydrogencarbonate/acetonitrile
Experimental: The log P values are measured according to EEC Directive 79/831 Annex V.A8 by HPLC (high-performance liquid chromatography) on a reversed-phase column (C 18). Temperature: 55° C.
The LC-MS determination in the acidic range is effected at pH 2.7 using 0.1% aqueous formic acid and acetonitrile (contains 0.1% formic acid) as eluents; linear gradient from 10% acetonitrile to 95% acetonitrile. Called log P (HCOOH) in the table.
LC-MS determination in the neutral range is effected at pH 7.8 with 0.001 molar aqueous ammonium hydrogencarbonate solution and acetonitrile as eluents; linear gradient from 10% acetonitrile to 95% acetonitrile. Called log P (neutral) in the table.
Calibration is carried out using unbranched alkan-2-ones (having 3 to 16 carbon atoms) with known log P values (log P values determined on the basis of the retention times by linear interpolation between two successive alkanones).

Spodoptera frugiperda = Spodoptera frugiperda - spray test; assay type: in vivo; conditions: 500 g/ha, after 7 days, caterpillars on maize leaf discs
Experimental: as §1, §2
Leaf discs of maize (Zea mays) are sprayed with an active compound preparation of the desired concentration and, after drying, populated with caterpillars of the armyworm (Spodoptera frugiperda).
After 7 days, the efficacy in % is determined. 100% means that all the caterpillars have been killed; 0% means that no caterpillars have been killed.

Ctenocephalides felis [2] = test: Ctenocephalides felis - in vitro contact tests with adult cat fleas; assay type: in vivo; conditions: 5 μg/cm^2 (=500 g/ha), after 48 h, adult cat fleas dead or moribund
Experimental: (§3) For the coating of the test tubes, 9 mg of active compound are first dissolved in 1 ml of acetone p.a. and then diluted to the desired concentration with acetone p.a. 250 μl of the solution are distributed homogeneously on the inner walls and the base of a 25 ml test tube by turning and rocking on an orbital shaker (rocking rotation at 30 rpm for 2 h). With 900 ppm active compound solution and internal surface 44.7 cm^2, given homogeneous distribution, an area-based dose of 5 μg/cm^2 is achieved.
After the solvent has evaporated off, the tubes are populated with 5-10 adult cat fleas (Ctenocephalides felis), sealed with a perforated plastic lid and incubated in a horizontal position at room temperature and ambient humidity. After 48 h, efficacy is determined. To this end, the test tubes are stood upright and the fleas are knocked to the base of the tube. Fleas which remain motionless at the base or move in an uncoordinated manner are considered to be dead or moribund.
100% efficacy means that all the fleas were dead or moribund. 0% efficacy means that no fleas were harmed.

Myzus persicae [3] = test: Myzus persicae - spray test (Chinese cabbage leaf discs); assay type: in vivo; conditions: 500 g/ha, after 5-6 days
Experimental: • Solvent: 78 parts by weight of acetone • 1.5 parts by weight of dimethylformamide • Emulsifier: alkylaryl polyglycol ether
as §2
Discs of Chinese cabbage leaves (Brassica pekinensis) infested by all stages of the green peach aphid (Myzus persicae) are sprayed with an active compound preparation of the desired concentration.
After 5-6 days, the efficacy in % is determined. 100% means that all the aphids have been killed; 0% means that no aphids have been killed.

Rhipicephalus sanguineus = Rhipicephalus sanguineus - in vitro contact tests with adult brown dog ticks; assay type: in vivo; conditions: 5 μg/cm^2 (=500 g/ha), after 48 h, adult dog ticks dead or moribund
Experimental: as §3, with “p.a. and 20 then diluted” for “p.a. and then diluted”
After the solvent has evaporated off, the tubes are populated with 5-10 adult dog ticks (Rhipicephalus sanguineus), sealed with a perforated plastic lid and incubated in a horizontal position in the dark at room temperature and ambient humidity. After 48 h, efficacy is determined. To this end, the ticks are knocked to the base of the tube and incubated on a hotplate at 45-50° C. for not more than 5 min. Ticks which remain motionless on the base or move in such an uncoordinated manner that they are unable to deliberately avoid the heat by climbing upwards are considered to be dead or moribund.
An efficacy of 100% means that all the ticks were dead or moribund. 0% efficacy means that none of the ticks were harmed.

Lucilia cuprina = Lucilia cuprina test; assay type: in vivo; conditions: 100 ppm, after 2 days, L1 larvae
Experimental: • Solvent: dimethyl sulphoxide To produce a suitable preparation of active compound, 10 mg of active compound are mixed with 0.5 ml of dimethyl sulphoxide, and the concentrate is diluted with water to the desired concentration. About 20 L1 larvae of the Australian sheep blowfly (Lucilia cuprina) are transferred into a test vessel containing minced horsemeat and the active compound preparation of the desired concentration. After 2 days, the kill in % is determined. 100% means that all the larvae have been killed; 0% means that no larvae have been killed.

Ctenocephalides felis [4] = test: Ctenocephalides felis - oral test; assay type: in vivo; conditions: 100 ppm in citrated cattle blood, after 2 days, adult cat fleas
Experimental: • Solvent: dimethyl sulphoxide To produce a suitable preparation of active compound, 10 mg of active compound are mixed with 0.5 ml of dimethyl sulphoxide. Dilution with citrated cattle blood gives the desired concentration. About 20 unfed adult cat fleas (Ctenocephalides felis) are placed into a chamber which is closed at the top and bottom with gauze. A metal cylinder whose bottom end is closed with parafilm is placed onto the chamber. The cylinder contains the blood/active compound preparation, which can be imbibed by the fleas through the parafilm membrane. After 2 days, the kill in % is determined. 100% means that all of the fleas have been killed; 0% means that none of the fleas have been killed.

Tetranychus urticae = Tetranychus urticae - spray test, OP-resistant; assay type: in vivo; conditions: 500 g/ha, after 6 days, bean leaf discs
Experimental: as §1, §2
Discs of bean leaves (Phaseolus vulgaris) infested with all stages of the greenhouse red spider mite (Tetranychus urticae) are sprayed with an active compound preparation of the desired concentration.
After 6 days, the efficacy in % is determined. 100% means that all the spider mites have been killed; 0% means that no spider mites have been killed.

Musca domestica = Musca domestica test; assay type: in vivo; conditions: after 2 days, adult houseflies
Experimental: • Solvent: dimethyl sulphoxide To produce a suitable preparation of active compound, 10 mg of active compound are mixed with 0.5 ml of dimethyl sulphoxide, and the concentrate is diluted with water to the desired concentration. Vessels containing a sponge treated with sugar solution and the active compound preparation of the desired concentration are populated with 10 adult houseflies (Musca domestica). After 2 days, the kill in % is determined. 100% means that all of the flies have been killed; 0% means that none of the flies have been killed.

Haemonchus contortus = Haemonchus contortus test; assay type: in vivo; conditions: 20 ppm, after 5 days, larvae
Experimental: • Solvent: Dimethyl Sulphoxide To produce a suitable preparation of active compound, 10 mg of active compound are mixed with 0.5 ml of dimethyl sulphoxide and the concentrate is diluted with “Ringer's solution” to the desired concentration. Vessels containing the active compound preparation of the desired concentration are populated with about 40 larvae of the red stomach worm (Haemonchus contortus). After 5 days, the kill in % is determined. 100% means that all the larvae have been killed; 0% means that none of the larvae have been killed.

Boophilus microplus = Boophilus microplus - injection test; assay type: in vivo; conditions: 20 μg/animal injected, engorged adult female cattle ticks, laying of fertile eggs after 7 days
Experimental: • Solvent: dimethyl sulphoxide
To produce a suitable preparation of active compound, 10 mg of active compound are mixed with 0.5 ml of solvent and the concentrate is diluted with solvent to the desired concentration.
1 μl of the active compound solution is injected into the abdomen of 5 engorged adult female cattle ticks (Boophilus microplus). The animals are transferred into dishes and kept in a climate-controlled room.
Efficacy is assessed after 7 days by laying of fertile eggs. Eggs which are not visibly fertile are stored in a climate-controlled cabinet until the larvae hatch after about 42 days. An efficacy of 100% means that none of the ticks has laid any fertile eggs; 0% means that all the eggs are fertile.

Myzus persicae [5] = test: Myzus persicae spray test (bell pepper plants); assay type: in vivo; conditions: 100 ppm, after 6 days
Experimental: • Solvent: 14 parts by weight of dimethylformamide • Emulsifier: alkylaryl polyglycol ether
as §2, with “water. If the addition of ammonium salts or/and penetrants is required, these are each added in a concentration of 1000 ppm to the formulation solution.” for “water.”
Bell pepper plants (Capsicum annuum) severely infested with the green peach aphid (Myzus persicae) are treated by spraying with the active compound preparation in the desired concentration.
After 6 days, the kill in % is determined. 100% means that all of the aphids have been killed; 0% means that none of the aphids have been killed.

Structure (SMILES)	LOGP_HCOOH [1]	LOGP_NEUTRAL [1]	efficacy (Phaedon cochleariae) [%]	nematicidal efficacy (Meloidogyne incognita) [%]	efficacy (Spodoptera frugiperda) [%]	efficacy (Ctenocephalides felis [2]) [%]	efficacy (Myzus persicae [3]) [%]	efficacy (Rhipicephalus sanguineus) [%]	efficacy (kill) (Lucilia cuprina) [%]	efficacy (kill) (Ctenocephalides felis [4]) [%]	efficacy (Tetranychus urticae) [%]	efficacy (kill) (Musca domestica; 20 ppm) [%]	efficacy (kill) (Haemonchus contortus) [%]	efficacy (Boophilus microplus) [%]	efficacy (kill) (Musca domestica; 4 ppm) [%]	efficacy (kill) (Myzus persicae [5]) [%]
CCS(=O)(=O)c1c(-c2nc3cc(C(F)(F)F)ccc3n2C)nc2ccc(C)cn12 [Example I-35]	2.98	–	–	–	100	100	90	80	–	–	–	–	–	–	–	–
CC[S+]([O-])c1c(-c2nc3cc(C(F)(F)F)ncc3n2C)nc2cc(C(F)(F)F)ccn12 (stereo not drawn) [Example I-18]	3.29	3.25	100	–	100	100	–	–	100	100	–	–	–	95	95	–
CCS(=O)(=O)c1c(-c2nc3cc(C(F)(F)F)ccc3n2C)nc2ccccn12 [Example I-10]	2.70	2.64	100	–	100	–	–	–	100	–	–	–	–	–	–	100

Continued, in another order:

LOGP_HCOOH [1]	LOGP_NEUTRAL [1]	Structure (SMILES)	efficacy (Phaedon cochleariae) [%]	nematicidal efficacy (Meloidogyne incognita) [%]	efficacy (Spodoptera frugiperda) [%]	efficacy (Ctenocephalides felis [2]) [%]	efficacy (Myzus persicae [3]) [%]	efficacy (Rhipicephalus sanguineus) [%]	efficacy (kill) (Lucilia cuprina) [%]	efficacy (kill) (Ctenocephalides felis [4]) [%]	efficacy (Tetranychus urticae) [%]	efficacy (kill) (Musca domestica; 20 ppm) [%]	efficacy (kill) (Haemonchus contortus) [%]	efficacy (Boophilus microplus) [%]	efficacy (kill) (Musca domestica; 4 ppm) [%]	efficacy (kill) (Myzus persicae [5]) [%]
3.43	3.39	CCSc1c(-c2nc3cc(C(F)(F)F)cnc3n2C)nc2ccccn12 [Example I-52]	100	100	–	–	–	–	–	–	–	–	–	–	–	–
2.58	2.49	CCS(=O)(=O)c1c(-c2nc3cc(C(F)(F)F)cnc3n2C)nc2ccccn12 [Example I-59]	100	–	100	100	90	100	100	80	90	80	80	–	–	–
